Test results from ChEMBL document CHEMBL1201862, “PubChem BioAssay data set” (2004).
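48-hour exposure; five concentrations; linearly interpolated endpoints. The concentration for 50% growth inhibition is given as GI50.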 Active and inactive are the calls of the source. No stated cut-off is given here; in the data, active = GI50 up to about 1.1 µM and inactive = higher.

Legend:
Experiment in all cases: DTP human tumour cell line panel, 48 h
786-0 = tested on: 786-0
A549 = tested on: A549
ACHN = tested on: ACHN
CAKI-1 = tested on: CAKI-1
CCRF-CEM = tested on: CCRF-CEM
COLO 205 = tested on: COLO 205
DLD-1 = tested on: DLD-1
DMS-114 = tested on: DMS-114
DMS-273 = tested on: DMS-273
EKVX = tested on: EKVX
HCC 2998 = tested on: HCC 2998
HCT-15 = tested on: HCT-15
HL-60 = tested on: HL-60
HOP-62 = tested on: HOP-62
HOP-92 = tested on: HOP-92
HT-29 = tested on: HT-29
IGROV-1 = tested on: IGROV-1
K562 = tested on: K562
KM-20L2 = tested on: KM-20L2
KM12 = tested on: KM12
LOX IMVI = tested on: LOX IMVI
LXFL 529 = tested on: LXFL 529
M14 = tested on: M14
M19-MEL = tested on: M19-MEL
MOLT-4 = tested on: MOLT-4
Malme-3M = tested on: Malme-3M
NCI-H23 = tested on: NCI-H23
NCI-H460 = tested on: NCI-H460
NCI-H522 = tested on: NCI-H522
OVCAR-3 = tested on: OVCAR-3
OVCAR-4 = tested on: OVCAR-4
OVCAR-5 = tested on: OVCAR-5
OVCAR-8 = tested on: OVCAR-8
RPMI-8226 = tested on: RPMI-8226
RXF 393 = tested on: RXF 393
SF-268 = tested on: SF-268
SF-295 = tested on: SF-295
SK-MEL-28 = tested on: SK-MEL-28
SK-MEL-2 = tested on: SK-MEL-2
SK-MEL-5 = tested on: SK-MEL-5
SK-OV-3 = tested on: SK-OV-3
SN12C = tested on: SN12C
SNB-75 = tested on: SNB-75
SNB-78 = tested on: SNB-78
SW-620 = tested on: SW-620
TK-10 = tested on: TK-10
UACC-257 = tested on: UACC-257
UACC-62 = tested on: UACC-62
XF498 = tested on: XF498
A498 = tested on: A498
HCT-116 = tested on: HCT-116
HOP-18 = tested on: HOP-18
SF-539 = tested on: SF-539
SNB-19 = tested on: SNB-19
SR = tested on: SR
U-251 = tested on: U-251
UO-31 = tested on: UO-31

O=C1CC(O)(c2ccccc2)C(c2ccccc2)=C1c1ccccc1 (configuration not stated)
GI50 (786-0): 45 µM (inactive) | GI50 (A549): 39.1 µM (inactive) | GI50 (ACHN): 38 µM (inactive) | GI50 (CAKI-1): 31.3 µM (inactive) | GI50 (CCRF-CEM): 30.1 µM (inactive) | GI50 (COLO 205): 17.6 µM (inactive) | GI50 (DLD-1): 44.2 µM (inactive) | GI50 (DMS-114): 26.2 µM (inactive) | GI50 (DMS-273): 34.6 µM (inactive) | GI50 (EKVX): 40.9 µM (inactive) | GI50 (HCC 2998): 57.1 µM (inactive) | GI50 (HCT-15): 32.3 µM | GI50 (HL-60): 24.3 µM (inactive) | GI50 (HOP-62): 38.2 µM (inactive) | GI50 (HOP-92): 17.3 µM (inactive) | GI50 (HT-29): 42.8 µM (inactive) | GI50 (IGROV-1): 44 µM (inactive) | GI50 (K562): 30.5 µM (inactive) | GI50 (KM-20L2): 41.8 µM (inactive) | GI50 (KM12): 37.9 µM (inactive) | GI50 (LOX IMVI): 38.2 µM (inactive) | GI50 (LXFL 529): 35.3 µM (inactive) | GI50 (M14): 35.4 µM (inactive) | GI50 (M19-MEL): 29.6 µM (inactive) | GI50 (MOLT-4): 25.2 µM (inactive) | GI50 (Malme-3M): 46 µM (inactive) | GI50 (NCI-H23): 35.9 µM (inactive) | GI50 (NCI-H460): 33.2 µM (inactive) | GI50 (NCI-H522): 17.7 µM (inactive) | GI50 (OVCAR-3): 29.4 µM (inactive) | GI50 (OVCAR-4): 34.1 µM (inactive) | GI50 (OVCAR-5): > 100 µM (inactive) | GI50 (OVCAR-8): 47 µM (inactive) | GI50 (RPMI-8226): 20.7 µM (inactive) | GI50 (RXF 393): 28.7 µM (inactive) | GI50 (SF-268): 37.7 µM (inactive) | GI50 (SF-295): 32.4 µM (inactive) | GI50 (SK-MEL-28): 39.8 µM (inactive) | GI50 (SK-MEL-2): 25.5 µM (inactive) | GI50 (SK-MEL-5): 39.6 µM (inactive) | GI50 (SK-OV-3): > 100 µM (inactive) | GI50 (SN12C): 38.6 µM (inactive) | GI50 (SNB-75): 27.8 µM (inactive) | GI50 (SNB-78): 73.6 µM (inactive) | GI50 (SW-620): 94.4 µM (inactive) | GI50 (TK-10): 81.5 µM (inactive) | GI50 (UACC-257): 31.5 µM (inactive) | GI50 (UACC-62): 29.5 µM (inactive) | GI50 (XF498): 24.4 µM (inactive)

CN(C)[C@@H]1C(O)=C(C(N)=O)C(=O)[C@@]2(O)C(O)=C3C(=O)c4c(O)cccc4C[C@H]3C[C@@H]12
GI50 (786-0): 2.31 µM (inactive) | GI50 (A498): 2.2 µM (inactive) | GI50 (A549): 2.32 µM (inactive) | GI50 (ACHN): 3.74 µM (inactive) | GI50 (CAKI-1): 1.98 µM (inactive) | GI50 (CCRF-CEM): 2.37 µM (inactive) | GI50 (COLO 205): 1.77 µM (inactive) | GI50 (DLD-1): 2.66 µM (inactive) | GI50 (DMS-114): 2.52 µM (inactive) | GI50 (DMS-273): 2.17 µM (inactive) | GI50 (HCC 2998): 1.78 µM (inactive) | GI50 (HCT-116): 1.77 µM (inactive) | GI50 (HCT-15): 4.8 µM | GI50 (HL-60): 2 µM (inactive) | GI50 (HOP-18): 1.79 µM (inactive) | GI50 (HOP-62): 2 µM (inactive) | GI50 (HOP-92): 2.26 µM (inactive) | GI50 (HT-29): 1.87 µM (inactive) | GI50 (IGROV-1): 2.1 µM (inactive) | GI50 (K562): 2.51 µM (inactive) | GI50 (KM-20L2): 2.19 µM (inactive) | GI50 (KM12): 2.13 µM (inactive) | GI50 (LOX IMVI): 1.91 µM (inactive) | GI50 (LXFL 529): 1.92 µM (inactive) | GI50 (M14): 1.99 µM (inactive) | GI50 (M19-MEL): 1.68 µM (inactive) | GI50 (MOLT-4): 2.45 µM (inactive) | GI50 (Malme-3M): 1.51 µM (inactive) | GI50 (NCI-H23): 2 µM (inactive) | GI50 (NCI-H460): 2.18 µM (inactive) | GI50 (NCI-H522): 2.13 µM (inactive) | GI50 (OVCAR-3): 1.75 µM (inactive) | GI50 (OVCAR-4): 1.68 µM (inactive) | GI50 (OVCAR-5): 2.09 µM (inactive) | GI50 (OVCAR-8): 2.89 µM (inactive) | GI50 (RPMI-8226): 2.17 µM (inactive) | GI50 (RXF 393): 1.69 µM (inactive) | GI50 (SF-268): 1.73 µM (inactive) | GI50 (SF-295): 1.7 µM (inactive) | GI50 (SF-539): 2 µM (inactive) | GI50 (SK-MEL-28): 1.77 µM (inactive) | GI50 (SK-MEL-2): 1.83 µM (inactive) | GI50 (SK-MEL-5): 1.75 µM (inactive) | GI50 (SK-OV-3): 1.9 µM (inactive) | GI50 (SN12C): 3.44 µM (inactive) | GI50 (SNB-19): 1.97 µM (inactive) | GI50 (SNB-75): 1.61 µM (inactive) | GI50 (SR): 2.56 µM (inactive) | GI50 (SW-620): 3.11 µM (inactive) | GI50 (TK-10): 2.52 µM (inactive) | GI50 (U-251): 2.17 µM (inactive) | GI50 (UACC-62): 1.72 µM (inactive) | GI50 (UO-31): 1.87 µM (inactive)
